From patent US11248006B2, “Macrocyclic derivative of pyrazol[3,4-d]pyrimidin-3-one, pharmaceutical composition and use thereof” (SHANGHAI DE NOVO PHARMATECH CO., LTD., priority 2017, dated 2022)

tested on: Human osteosarcoma cell line MG63; assay: Cell proliferation assay (CCK-8 cell viability); format: cell-based; conditions: CCK-8, 72 hours incubation
Protocol: In the present disclosure, cell assays were used to assess the biological activity of the compound. Human osteosarcoma cell line MG63 (ATCC CRL-1427) was cultured in a 96-well plate of Dulbecco's Modified Eagle's medium, supplemented with 10% fetal bovine serum and 1% (v/v) L-glutamine, and the cultivation environment was 37° C. and 5% CO2. Compound concentrations ranged from 4.5 nM to 30 μM. The Wee1 inhibitor stock solution was dissolved in DMSO, added to the medium with an indicated concentration and incubated for 72 hours. Negative control cells were only treated with vehicle. In some assays, a known Wee1 inhibitor was added as a positive control. Cell viability was measured using a Cell Counting Kit-8 (CCK-8, Sigma-Aldrich) under the instruction of the product specification. The data was analyzed using Graphpad software to obtain a fitted curve of IC50 values against the compounds.

| IC50 [nM] | SMILES |
| --- | --- |
| 2400 | CN1CCN(c2ccc(Nc3ncc4c(=O)n5n(c4n3)-c3cccc(n3)OCCCC/C=C/C5)cc2)CC1 [Compound 1-1-1] |
| 295 | CN1CCN(c2ccc(Nc3ncc4c(=O)n5n(c4n3)-c3ccc4c(n3)N(CCC/C=C\C5)C(=O)CO4)cc2CO)CC1 [Compound 3-3-1] |

same assay, conditions: Homo sapiens, MG-63, 72 h, CCK-8, 72 hours incubation

| SMILES | IC50 [nM] |
| --- | --- |
| C=CCn1c(=O)c2cnc(Nc3ccc(N4CCN(C)CC4)cc3)nc2n1-c1cccc(C(C)(C)O)n1 [AZD1775, 2-allyl-1-(6-(2-hydroxypropan-2-yl)pyridin-2-yl)-6-((4-(4-methylpiperazin-1-yl)phenyl)amino)-1H-pyrazolo[3,4-d]pyrimidin-3 (2H)-one, reference compound] | 785 |
| CN1CCN(c2cc(Nc3ncc4c(=O)n5n(c4n3)-c3ccc4c(n3)N(CCC/C=C\C5)C(=O)CO4)cc3ccoc23)CC1 [Compound 3-7-17] | 270 |
| CN1CCN(c2ccc3cc(Nc4ncc5c(=O)n6n(c5n4)-c4ccc5c(n4)N(CCC/C=C\C6)C(=O)CO5)ccc3c2)CC1 [Compound 3-8-1] | 160 |

Continued, values first:

| IC50 [nM] | SMILES |
| --- | --- |
| 593 | CN1Cc2cc(Nc3ncc4c(=O)n5n(c4n3)-c3cccc(n3)OCC/C=C\C5)ccc2C2(CC2)C1 [Compound 1-2-1] |
| 439 | CC(=O)N1CCC/C=C\Cn2c(=O)c3cnc(Nc4ccc5c(c4)CN(C)CC54CC4)nc3n2-c2cccc1n2 [Compound 2-2-1] |

target: Wee1 (Homo sapiens (Human), UniProt P30291); assay: Wee1 enzyme catalysis assay (ATP-Glo Max kinase luminescence detection kit); format: biochemical; conditions: Wee1 enzymatic activity, 10 μM ATP, Poly (Lys, Tyr) substrate, 30° C. for 50 minutes
Sequence (P30291 whole entry): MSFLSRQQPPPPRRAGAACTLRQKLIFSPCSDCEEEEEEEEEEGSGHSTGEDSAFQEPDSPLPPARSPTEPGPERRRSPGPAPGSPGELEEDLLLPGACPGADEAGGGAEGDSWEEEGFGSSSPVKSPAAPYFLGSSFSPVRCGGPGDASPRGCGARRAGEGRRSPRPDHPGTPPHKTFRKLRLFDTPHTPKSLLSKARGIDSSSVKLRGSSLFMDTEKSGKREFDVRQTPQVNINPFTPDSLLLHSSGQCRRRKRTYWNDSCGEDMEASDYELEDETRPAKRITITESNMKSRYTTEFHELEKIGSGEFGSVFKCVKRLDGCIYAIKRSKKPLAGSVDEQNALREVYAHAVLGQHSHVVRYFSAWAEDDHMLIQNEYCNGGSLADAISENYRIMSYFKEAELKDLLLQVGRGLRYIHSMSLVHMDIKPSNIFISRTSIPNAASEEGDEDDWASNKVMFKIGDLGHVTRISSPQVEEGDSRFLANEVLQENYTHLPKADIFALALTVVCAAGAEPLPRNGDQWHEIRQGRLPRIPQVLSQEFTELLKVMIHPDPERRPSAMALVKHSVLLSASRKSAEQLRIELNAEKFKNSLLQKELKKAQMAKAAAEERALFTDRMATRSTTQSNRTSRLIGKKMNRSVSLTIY
Protocol: In the present disclosure, Wee1 enzyme catalysis assay was carried out using the ATP-Glo Max kinase luminescence detection kit (Promega). Kinase activity was assessed by quantitative detection of the amount of ATP retained in the solution following the kinase reaction. The luminescent signal in the assay is proportional to the amount of ATP and inversely proportional to the kinase activity. The concentration of the compound in the assay ranged from 0.5 nM to 30 μM. The compound was dissolved in 10% DMSO, and 5 μL of the solution was added to 50 μL of the reaction, and the concentration of DMSO in the final reaction was 1%. The reaction was carried out at 30° C. for 50 minutes. 40 mM trishydroxymetyl aminomethane, pH 7.4, 10 mM MgCl2, 0.1 mg/ml BSA, 2 mM DTT, 0.1 mg/ml Poly (Lys, Tyr) substrate, 10 μM ATP and Wee1 were contained in the reaction mixture. After the enzymatic reaction, 50 μL of ATP-Glo Max kinase luminescence detection assay solution (Promega) was added and incubated for 15 minutes at room temperature. The luminescent signal was measured using a microplate reader. In some assays, a known Wee1 inhibitor was added as a positive control. Luminance data was analyzed using Graphpad software. The difference between the luminescence intensity in the absence of Wee1 and the luminescence intensity in the presence of Wee1 was defined as 100% activity (Lut−Luc). Using the luminescence intensity signal (Lu) in the presence of the compound, the % activity was calculated as follows: % Activity={(Lut−Lu)/(Lut−Luc)}×100%, wherein, Lu=luminous intensity of the compound Non-linear regression analysis was employed to plot the dose-effect curve of % activity value and the corresponding concentrations for the series of compounds. The equation is Y=B+(TB)/1+10((Log EC50−X)×Hill Slope), Y=% activity, B=minimum activity percentage, T=maximum activity percentage, X=logarithm of compound and Hill slope=slope factor or Hill coefficient. The IC50 value was determined by the concentration of a compound that is required to obtain 50% of the maximum effect.

| SMILES | IC50 [nM] |
| --- | --- |
| CN1CCN(c2ccc(Nc3ncc4c(=O)n5n(c4n3)-c3cccc(n3)OCCC/C=C\C5)cc2)CC1 [Compound 1-1-2] | 32 |
| CN1CCN(c2ccc(Nc3ncc4c(=O)n5n(c4n3)-c3cccc(n3)OCCOC/C=C/C5)cc2)CC1 [Compound 1-1-4] | 30.2 |
| CN1Cc2cc(Nc3ncc4c(=O)n5n(c4n3)-c3cccc(n3)OCCCC/C=C\C5)ccc2C2(CC2)C1 [Compound 1-2-2] | 10.3 |
| CN1Cc2ccc(Nc3ncc4c(=O)n5n(c4n3)-c3cccc(n3)OCCOC/C=C/C5)cc2C(C)(C)C1 [Compound 1-3-2] | 23.8 |
| CC(=O)N1CCCCC=CCn2c(=O)c3cnc(Nc4ccc(N5CCN(C)CC5)cc4)nc3n2-c2cccc1n2 [Compound 2-1-1] | 75.2 |
| CC(=O)N1CCCCC=CCn2c(=O)c3cnc(Nc4ccc(N5CCN(C)CC5)cc4)nc3n2-c2cccc1n2 [Compound 2-1-2] | 62.5 |
| CC(=O)N1CC/C=C\Cn2c(=O)c3cnc(Nc4ccc5c(c4)CN(C)CC5(C)C)nc3n2-c2cccc1n2 [Compound 2-3-1] | 10.7 |
| CC(=O)N1CCC/C=C\Cn2c(=O)c3cnc(Nc4ccc5c(c4)CN(C)CC5(C)C)nc3n2-c2cccc1n2 [Compound 2-3-2] | 16.4 |
| CN1Cc2cc(Nc3ncc4c(=O)n5n(c4n3)-c3ccc4c(n3)N(CCCC/C=C/C5)C(=O)CO4)ccc2C2(CC2)C1 [Compound 3-2-1] | 21 |
| O=C1COc2ccc3nc2N1CCC/C=C\Cn1c(=O)c2cnc(Nc4ccc5c(c4)CN(CC(F)F)CC54CC4)nc2n1-3 [Compound 3-2-8] | 9 |
| CN1CCN(Cc2ccc(Nc3ncc4c(=O)n5n(c4n3)-c3ccc4c(n3)N(CCC/C=C\C5)C(=O)CO4)cc2)CC1 [Compound 3-3-6] | 24.8 |
| O=C1COc2ccc3nc2N1CCC/C=C\Cn1c(=O)c2cnc(Nc4ccc(N5CCN6CCCC6C5)cc4)nc2n1-3 (stereo not shown) [Compound 3-3-10] | 8.8 |
| CN1CCN(C)c2ccc(Nc3ncc4c(=O)n5n(c4n3)-c3ccc4c(n3)N(CCC/C=C\C5)C(=O)CO4)cc2C1 [Compound 3-4-1] | 9.4 |
| CN1Cc2cc(Nc3ncc4c(=O)n5n(c4n3)-c3ccc4c(n3)N(CCC/C=C\C5)C(=O)CO4)ccc2C1=O [Compound 3-6-1] | 16.2 |
| CN1CCCC(n2ccc3cc(Nc4ncc5c(=O)n6n(c5n4)-c4ccc5c(n4)N(CCC/C=C\C6)C(=O)CO5)ccc32)C1 (stereo not shown) [Compound 3-7-2] | 18.2 |
| COC(=O)N1CCC(n2ccc3cc(Nc4ncc5c(=O)n6n(c5n4)-c4ccc5c(n4)N(CCC/C=C\C6)C(=O)CO5)ccc32)CC1 [Compound 3-7-4] | 36.6 |
| CN(C)CCn1ccc2cc(Nc3ncc4c(=O)n5n(c4n3)-c3cccc(n3)C(C)(O)CCC/C=C\C5)ccc21 (stereo not shown) [Compound 6-1-1] | 155 |
| CN1Cc2cc(Nc3ncc4c(=O)n5n(c4n3)-c3ccc4c(n3)N(CCC/C=C\C5)C(=O)C(C)(C)O4)ccc2C2(CC2)C1 [Compound 7-1-1] | 12.9 |
| CN1Cc2cc(Nc3ncc4c(=O)n5n(c4n3)-c3ccc4c(n3)N(CCO4)C(=O)CC/C=C\C5)ccc2C(C)(C)C1 [Compound 8-1-1] | 20.1 |
| CN1Cc2cc(Nc3ncc4c(=O)n5n(c4n3)-c3ccc4c(n3)N(CCC/C=C\C5)CCO4)ccc2C2(CC2)C1 [Compound 8-2-1] | 11.6 |
| COc1cc(Nc2ncc3c(=O)n4n(c3n2)-c2ccc3c(n2)N(CCC/C=C\C4)CCO3)ccc1N1CCN(C)CC1 [Compound 8-2-2] | 13 |
| CN1Cc2cc(Nc3ncc4c(=O)n5n(c4n3)-c3ccc4c(n3)N(CCO4)C(=O)OC/C=C\C5)ccc2C2(CC2)C1 [Compound 8-3-1] | 16.3 |
| CN1Cc2cc(Nc3ncc4c(=O)n5n(c4n3)-c3cccc(n3)N(C)CCC/C=C\C5)ccc2C(C)(C)C1 [Compound 9-1-1] | 11.8 |
| COc1cc(Nc2ncc3c(=O)n4n(c3n2)-c2ccc3c(n2)N(CCC#CC4)C(=O)CO3)ccc1N1CCN(C)CC1 [Compound 10-1-5] | 11.7 |

The next lines start with the values.

| IC50 [nM] | SMILES |
| --- | --- |
| 8.6 | CN1C[C@@H]2C[C@H]1CN2c1ccc(Nc2ncc3c(=O)n4n(c3n2)-c2ccc3c(n2)N(CCC/C=C\C4)C(=O)CO3)cc1 [Compound 3-3-4] |
| 8.4 | COc1cc(Nc2ncc3c(=O)n4n(c3n2)-c2ccc3c(n2)N(CCCC#CC4)C(=O)CO3)ccc1N1CCN(C)CC1 [Compound 10-1-3] |
| 8.2 | CN1CCOc2ccc(Nc3ncc4c(=O)n5n(c4n3)-c3ccc4c(n3)N(CCC/C=C\C5)C(=O)CO4)cc2C1 [Compound 3-4-2] |
| 8.1 | CN1Cc2cc(Nc3ncc4c(=O)n5n(c4n3)-c3cccc(n3)OCC/C=C\C5)ccc2C(C)(C)C1 [Compound 1-3-1] |
| 7.7 | CCN1Cc2cc(Nc3ncc4c(=O)n5n(c4n3)-c3ccc4c(n3)N(CCC/C=C\C5)C(=O)CO4)ccc2C2(CC2)C1 [Compound 3-2-5] |
| 7.6 | CN1CCN(c2ccc(Nc3ncc4c(=O)n5n(c4n3)-c3ccc4c(n3)N(CCC/C=C\C5)C(=O)CO4)cc2F)CC1 [Compound 3-3-8] |
| 7.6 | CN(C)CCn1ccc2cc(Nc3ncc4c(=O)n5n(c4n3)-c3ccc4c(n3)N(CCC/C=C\C5)C(=O)CO4)ccc21 [Compound 3-7-1] |
| 7.5 | COc1cc(Nc2ncc3c(=O)n4n(c3n2)-c2ccc3c(n2)N(CCC/C=C\C4)C(=O)CC3)ccc1N1CCN(C)CC1 [Compound 5-1-1] |
| 7.3 | CN1CCN(c2ccc(Nc3ncc4c(=O)n5n(c4n3)-c3cccc(n3)OCC/C=C\C5)cc2)CC1 [Compound 1-1-3] |
| 6.8 | COc1cc(Nc2ncc3c(=O)n4n(c3n2)-c2cccc(n2)OCC/C=C\C4)ccc1N1CCN(C)CC1 [Compound 1-1-6] |
| 6.7 | CN1CCN(c2ccc(Nc3ncc4c(=O)n5n(c4n3)-c3cccc(n3)OCCCC/C=C/C5)cc2)CC1 [Compound 1-1-1] |
| 6.5 | COc1cc(Nc2ncc3c(=O)n4n(c3n2)-c2ccc3c(n2)N(CCC/C=C/C4)C(=O)CO3)ccc1N1CCN(C)CC1 [Compound 3-3-11] |
| 6.5 | CC(C)N1CCC(n2ncc3cc(Nc4ncc5c(=O)n6n(c5n4)-c4ccc5c(n4)N(CCC/C=C\C6)C(=O)CO5)ccc32)CC1 [Compound 3-7-14] |
| 6.3 | Cc1cc(Nc2ncc3c(=O)n4n(c3n2)-c2ccc3c(n2)N(CCCC=CC4)C(=O)CO3)ccc1N1CCN(C)CC1 [Compound 3-3-9] |
| 6.1 | CN1CCN(c2ccc(Nc3ncc4c(=O)n5n(c4n3)-c3cccc(n3)OCC/C=C\C5)cc2CO)CC1 [Compound 1-1-5] |
| 5.7 | CC1CN(c2ccc(Nc3ncc4c(=O)n5n(c4n3)-c3ccc4c(n3)N(CCC/C=C\C5)C(=O)CO4)cc2)CCN1C (stereo not shown) [Compound 3-3-3] |
| 5.5 | CN1CCN(c2ccc(Nc3ncc4c(=O)n5n(c4n3)-c3ccc4c(n3)N(CCC/C=C\C5)C(=O)CO4)cc2CO)CC1 [Compound 3-3-1] |
| 5.4 | CN1Cc2cc(Nc3ncc4c(=O)n5n(c4n3)-c3cccc(n3)OCC/C=C\C5)ccc2C2(CC2)C1 [Compound 1-2-1] |
| 5.1 | CN1Cc2cc(Nc3ncc4c(=O)n5n(c4n3)-c3ccc4c(c3)N(CCC/C=C\C5)C(=O)CO4)ccc2C2(CC2)C1 [Compound 4-1-1] |
| 4.8 | COc1cc(Nc2ncc3c(=O)n4n(c3n2)-c2ccc3c(n2)N(CCC/C=C\C4)C(=O)CO3)ccc1N1CCN(C)C(C)C1 (stereo not shown) [Compound 3-3-5] |
| 3.7 | CC(=O)N1CCC/C=C\Cn2c(=O)c3cnc(Nc4ccc5c(c4)CN(C)CC54CC4)nc3n2-c2cccc1n2 [Compound 2-2-1] |
